Measurements from patent US8846947B2, “Benzimidazoles and related analogs as sirtuin modulators” (GlaxoSmithKline LLC, priority 2008, dated 2014).

Molecular target: T1, SIRT1 (Homo sapiens, UniProt Q96EB6)
T1 sequence (Q96EB6 1-747): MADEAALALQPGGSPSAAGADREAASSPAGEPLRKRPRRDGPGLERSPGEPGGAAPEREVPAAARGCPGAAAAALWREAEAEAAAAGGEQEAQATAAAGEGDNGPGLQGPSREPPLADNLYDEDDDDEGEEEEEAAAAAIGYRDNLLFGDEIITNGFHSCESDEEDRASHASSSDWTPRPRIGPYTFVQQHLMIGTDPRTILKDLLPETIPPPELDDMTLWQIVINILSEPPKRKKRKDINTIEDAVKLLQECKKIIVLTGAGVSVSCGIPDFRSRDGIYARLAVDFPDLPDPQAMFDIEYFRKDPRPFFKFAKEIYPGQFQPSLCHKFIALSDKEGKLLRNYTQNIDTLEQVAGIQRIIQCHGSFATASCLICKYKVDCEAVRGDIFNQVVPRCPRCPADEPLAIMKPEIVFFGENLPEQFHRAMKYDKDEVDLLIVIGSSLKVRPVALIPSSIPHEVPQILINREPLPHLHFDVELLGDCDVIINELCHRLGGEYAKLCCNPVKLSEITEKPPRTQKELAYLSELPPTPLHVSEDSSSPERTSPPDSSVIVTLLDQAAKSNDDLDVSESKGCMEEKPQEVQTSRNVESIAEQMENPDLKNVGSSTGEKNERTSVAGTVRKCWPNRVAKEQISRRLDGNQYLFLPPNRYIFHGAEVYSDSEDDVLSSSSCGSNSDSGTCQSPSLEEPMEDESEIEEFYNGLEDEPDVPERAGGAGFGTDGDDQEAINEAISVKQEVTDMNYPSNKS
Assay: Mass spectrometry based SIRT1 deacetylase activation assay (acetylated p53-derived peptide substrate)
Type: biochemical
Excerpt: A mass spectrometry based assay was used to identify modulators of SIRT1 activity. The mass spectrometry based assay utilizes a peptide having 20 amino acid residues as follows: Ac-EE-K(biotin)-GQSTSSHSK(Ac)NleSTEG-K(5TMR)-EE-NH2 (SEQ ID NO: 1) wherein K(Ac) is an acetylated lysine residue and Nle is a norleucine. The peptide is labeled with the fluorophore 5TMR (excitation 540 nm/emission 580 nm) at the C-terminus. The sequence of the peptide substrate is based on p53 with several modifications. In addition, the methionine residue naturally present in the sequence was replaced with the norleucine because the methionine may be susceptible to oxidation during synthesis and purification.
The mass spectrometry assay is conducted as follows: 0.5 μM peptide substrate and 120 μM βNAD^+ is incubated with 10 nM SIRT1 for 25 minutes at 25° C. in a reaction buffer (50 mM Tris-acetate pH 8, 137 mM NaCl, 2.7 mM KCl, 1 mM MgCl2, 5 mM DTT, 0.05% BSA). Test compounds may be added to the reaction as described above. […] After the 25 minute incubation with SIRT1, 10 μL of 10% formic acid is added to stop the reaction. Reactions are sealed and frozen for later mass spec analysis. Determination of the mass of the substrate peptide allows for precise determination of the degree of acetylation (i.e. starting material) as compared to deacetylated peptide (product).
A control for inhibition of sirtuin activity is conducted by adding 1 μL of 500 mM nicotinamide as a negative control at the start of the reaction (e.g., permits determination of maximum sirtuin inhibition). A control for activation of sirtuin activity is conducted using 10 nM of sirtuin protein, with 1 μL of DMSO in place of compound, to determine the amount of deacetylation of the substrate at a given timepoint within the linear range of the assay. This timepoint is the same as that used for test compounds and, within the linear range, the endpoint represents a change in velocity.
For the above assay, SIRT1 protein was expressed and purified as follows. […] The protein was expressed by induction with 1 mM IPTG as an N-terminal His-tag fusion protein at 18° C. overnight and harvested at 30,000×g. Cells were lysed with lysozyme in lysis buffer (50 mM Tris-HCl, 2 mM Tris[2-carboxyethyl]phosphine (TCEP), 10 μM ZnCl2, 200 mM NaCl) and further treated with sonication for 10 min for complete lysis. The protein was purified over a Ni-NTA column (Amersham) and fractions containing pure protein were pooled, concentrated and run over a sizing column (Sephadex S200 26/60 global). The peak containing soluble protein was collected and run on an Ion-exchange column (MonoQ). Gradient elution (200 mM-500 mM NaCl) yielded pure protein. This protein was concentrated and dialyzed against dialysis buffer (20 mM Tris-HCl, 2 mM TCEP) overnight. The protein was aliquoted and frozen at −80° C. until further use.
Sirtuin modulating compounds that activated SIRT1 were identified using the assay described above and are shown below in Table 1. The EC1.5 values for the activating compounds are represented by A (EC1.5<1.0 uM), B (EC1.5 1-25 uM), C (EC1.5 >25 uM). The percent maximum fold activation is represented by A (Fold activation >200%) or B (Fold Activation <200%).

SMILES | EC1.5 | Fold Act. (percent maximum fold activation)
O=C(Nc1nccs1)c1cccc2[nH]c(-c3ccc(N4CCOCC4)cc3)nc12 [Compound 268] | A (EC1.5<1.0 uM) | A (Fold activation >200%)
O=C(NCc1cccnc1)c1cccc2[nH]c(-c3cccc(C(F)(F)F)c3)nc12 [Compound 270] | C (EC1.5 >25 uM) | B (Fold Activation <200%)
O=C(NC1CN2CCC1CC2)c1cccc2[nH]c(-c3cccc(C(F)(F)F)c3)nc12 (stereo not shown) [Compound 272] | B (EC1.5 1-25 uM) | A (Fold activation >200%)
O=C(NC1CCOC1=O)c1cccc2[nH]c(-c3cccc(C(F)(F)F)c3)nc12 (stereo not shown) [Compound 273] | B (EC1.5 1-25 uM) | A (Fold activation >200%)
Cc1nc(NC(=O)c2cccc3[nH]c(-c4cccc(C(F)(F)F)c4)nc23)sc1C [Compound 274] | A (EC1.5<1.0 uM) | A (Fold activation >200%)
O=C(NC1CCOCC1)c1cccc2[nH]c(-c3cccc(C(F)(F)F)c3)nc12 [Compound 275] | B (EC1.5 1-25 uM) | A (Fold activation >200%)
O=C(NC1CCCC1)c1cccc2[nH]c(-c3cccc(C(F)(F)F)c3)nc12 [Compound 276] | C (EC1.5 >25 uM) | B (Fold Activation <200%)
O=C(Nc1ccncn1)c1cccc2[nH]c(-c3cccc(C(F)(F)F)c3)nc12 [Compound 277] | B (EC1.5 1-25 uM) | A (Fold activation >200%)
Cc1cc(NC(=O)c2cccc3[nH]c(-c4cccc(C(F)(F)F)c4)nc23)n(C)n1 [Compound 278] | B (EC1.5 1-25 uM) | A (Fold activation >200%)
Cc1cc(C)nc(NC(=O)c2cccc3[nH]c(-c4cccc(C(F)(F)F)c4)nc23)c1 [Compound 279] | A (EC1.5<1.0 uM) | A (Fold activation >200%)
O=C(Nc1nccs1)c1cccc2[nH]c(-c3ccccc3N3CCCC3)nc12 [Compound 280] | B (EC1.5 1-25 uM) | A (Fold activation >200%)
O=C(Nc1nccs1)c1cccc2[nH]c(-c3cccnc3N3CCNCC3)nc12 [Compound 282] | B (EC1.5 1-25 uM) | A (Fold activation >200%)
O=C(Nc1nc2ccccc2s1)c1cccc2[nH]c(-c3cccc(C(F)(F)F)c3)nc12 [Compound 284] | B (EC1.5 1-25 uM) | A (Fold activation >200%)
O=C(Nc1cccnc1)c1cccc2[nH]c(-c3cccc(N4CCOCC4)c3)nc12 [Compound 288] | A (EC1.5<1.0 uM) | A (Fold activation >200%)
O=C(Nc1ccccn1)c1cccc2[nH]c(-c3cccc(N4CCOCC4)c3)nc12 [Compound 289] | A (EC1.5<1.0 uM) | A (Fold activation >200%)
O=C(Nc1nccs1)c1cccc2[nH]c(-c3ccc(Cl)cc3C(F)(F)F)nc12 [Compound 290] | A (EC1.5<1.0 uM) | A (Fold activation >200%)
Cc1ncsc1-c1nc2c(C(=O)Nc3nccs3)cccc2[nH]1 [Compound 293] | B (EC1.5 1-25 uM) | A (Fold activation >200%)
O=C(Nc1nccs1)c1cccc2[nH]c(-c3ccncc3Cl)nc12 [Compound 294] | B (EC1.5 1-25 uM) | A (Fold activation >200%)
Cc1cc(NC(=O)c2cccc3[nH]c(-c4cccc(C(F)(F)F)c4)nc23)no1 [Compound 299] | B (EC1.5 1-25 uM) | A (Fold activation >200%)
O=C(Nc1cccnn1)c1cccc2[nH]c(-c3cccc(C(F)(F)F)c3)nc12 [Compound 300] | A (EC1.5<1.0 uM) | A (Fold activation >200%)

Results, then the compound that gave them:

EC1.5 | Fold Act. (percent maximum fold activation) | SMILES
A (EC1.5<1.0 uM) | A (Fold activation >200%) | O=C(Nc1nccs1)c1cccc2[nH]c(-c3ccnc(N4CCOCC4)c3)nc12 [Compound 269]
C (EC1.5 >25 uM) | B (Fold Activation <200%) | O=C(NCc1ccncc1)c1cccc2[nH]c(-c3cccc(C(F)(F)F)c3)nc12 [Compound 271]
A (EC1.5<1.0 uM) | A (Fold activation >200%) | Cc1cc(-c2nc3c(C(=O)Nc4nccs4)cccc3[nH]2)n(C)n1 [Compound 281]
B (EC1.5 1-25 uM) | A (Fold activation >200%) | O=C(Nc1nc(-c2ccccc2)cs1)c1cccc2[nH]c(-c3cccc(C(F)(F)F)c3)nc12 [Compound 283]
B (EC1.5 1-25 uM) | A (Fold activation >200%) | O=C(Nc1ccc(Cl)cn1)c1cccc2[nH]c(-c3cccc(C(F)(F)F)c3)nc12 [Compound 285]
B (EC1.5 1-25 uM) | A (Fold activation >200%) | O=C(Nc1cccnc1Cl)c1cccc2[nH]c(-c3cccc(C(F)(F)F)c3)nc12 [Compound 286]
A (EC1.5<1.0 uM) | A (Fold activation >200%) | O=C(Nc1ccncc1)c1cccc2[nH]c(-c3cccc(N4CCOCC4)c3)nc12 [Compound 287]
A (EC1.5<1.0 uM) | A (Fold activation >200%) | Cc1nn(-c2ccccc2)c(C)c1-c1nc2c(C(=O)Nc3nccs3)cccc2[nH]1 [Compound 291]
A (EC1.5<1.0 uM) | A (Fold activation >200%) | Cc1csc(-c2nc3c(C(=O)Nc4nccs4)cccc3[nH]2)n1 [Compound 292]
A (EC1.5<1.0 uM) | A (Fold activation >200%) | Cn1nc(C(F)(F)F)c(-c2nc3c(C(=O)Nc4nccs4)cccc3[nH]2)c1Cl [Compound 295]
B (EC1.5 1-25 uM) | A (Fold activation >200%) | O=C(Nc1nccs1)c1cccc2[nH]c(-c3ncccc3C(F)(F)F)nc12 [Compound 296]
A (EC1.5<1.0 uM) | A (Fold activation >200%) | O=C(Nc1cnccn1)c1cccc2[nH]c(-c3cccc(N4CCOCC4)c3)nc12 [Compound 297]
B (EC1.5 1-25 uM) | A (Fold activation >200%) | O=C(NC1CCNCC1)c1cccc2[nH]c(-c3cccc(C(F)(F)F)c3)nc12 [Compound 298]
C (EC1.5 >25 uM) | B (Fold Activation <200%) | O=C(N[C@H]1CCNC1)c1cccc2[nH]c(-c3cccc(C(F)(F)F)c3)nc12 [Compound 301]
A (EC1.5<1.0 uM) | A (Fold activation >200%) | O=C(Nc1nccs1)c1cccc2[nH]c(-c3cc(F)ccc3C(F)(F)F)nc12 [Compound 302]
